# In US9834558B2, “Substituted bridged urea analogs as sirtuin modulators” (GLAXOSMITHKLINE LLC, priority 2013, dated 2017):
# Target: T1, SIRT1 (Homo sapiens, UniProt Q96EB6)
# T1 sequence (Q96EB6 1-747): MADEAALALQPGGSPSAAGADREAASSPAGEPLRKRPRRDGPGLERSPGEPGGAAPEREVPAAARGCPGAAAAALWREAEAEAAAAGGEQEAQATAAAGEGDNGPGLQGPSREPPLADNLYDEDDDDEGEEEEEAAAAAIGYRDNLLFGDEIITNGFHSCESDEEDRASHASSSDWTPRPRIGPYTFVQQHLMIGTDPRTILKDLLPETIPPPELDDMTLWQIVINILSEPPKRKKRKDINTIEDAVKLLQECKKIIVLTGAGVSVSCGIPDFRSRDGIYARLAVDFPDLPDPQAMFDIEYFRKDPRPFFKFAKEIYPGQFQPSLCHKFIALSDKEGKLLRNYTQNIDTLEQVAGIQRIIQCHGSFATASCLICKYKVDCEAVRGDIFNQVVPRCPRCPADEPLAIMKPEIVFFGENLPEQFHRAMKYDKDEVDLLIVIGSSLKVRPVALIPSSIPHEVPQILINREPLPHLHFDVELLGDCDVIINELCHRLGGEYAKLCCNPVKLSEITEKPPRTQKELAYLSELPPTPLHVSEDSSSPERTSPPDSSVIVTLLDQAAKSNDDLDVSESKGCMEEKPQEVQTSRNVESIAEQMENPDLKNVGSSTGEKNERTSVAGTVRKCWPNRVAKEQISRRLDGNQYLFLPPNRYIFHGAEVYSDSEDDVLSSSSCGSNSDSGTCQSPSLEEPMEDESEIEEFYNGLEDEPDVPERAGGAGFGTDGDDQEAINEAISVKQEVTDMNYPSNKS
# Experiment: Trp mass spectrometry assay of SIRT1 activation
# Type: biochemical
# Settings: Trp mass spectrometry assay; EC1.5 = concentration of test compound that results in 150% activation of SIRT1
# Summary of the method: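 Activation read-out: mass-spec measurement of O-acetyl-ADP-ribose or deacetylated Trp peptide versus compound-free controls, giving EC1.5 and Percent Maximum Activation. Reactions ran 25 min at 25 °C, pH 7.5, with 120 μM βNAD+, 0.5 μM acetylated p53-derived peptide and 10 nM His-tagged SIRT1.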
row,Structure (SMILES),Tryp AVG EC1.5 (μM)
1,Cc1cc(-c2ccc3c(n2)N(C(=O)Nc2ccncn2)[C@H]2CCN3C2)ccn1 [Example 468],B (B (EC1.5 1-25 μM))
2,O=C(Nc1cncc(F)c1)N1c2nc(N3CC[C@H](F)C3)ccc2S(=O)(=O)N2CC[C@H]1C2 [Example 469],C (C (EC1.5>25 μM))
3,O=C(Nc1cnccn1)N1c2nc(-c3cccc(C(F)(F)F)c3)ccc2N2CCC1CC2 [Example 472],A (A (EC1.5<1 μM))
4,O=C(Nc1ccc(F)cn1)N1c2nc(-c3ccnc(N4CC[C@@H](F)C4)c3)ccc2N2CC[C@H]1C2 [Example 474],A (A (EC1.5<1 μM))
5,O=C(Nc1cncc(F)c1)N1c2nc(-c3ccnc(N4CC[C@H](F)C4)c3)ccc2N2CC[C@H]1C2 [Example 475],A (A (EC1.5<1 μM))
6,Cc1nc(NC(=O)N2c3nc(-c4ccccc4C#N)ccc3N3CCC[C@H]2C3)sc1C [Example 476],B (B (EC1.5 1-25 μM))
7,Cc1ccc(-c2ccc3c(n2)N(C(=O)Nc2cncc(F)c2)[C@H]2CCCN3C2)cn1 [Example 477],B (B (EC1.5 1-25 μM))
8,Cc1ccc(-c2ccc3c(n2)N(C(=O)Nc2ccncn2)[C@H]2CCCN3C2)cn1 [Example 479],B (B (EC1.5 1-25 μM))
9,Cc1cc(-c2ccc3c(n2)N(C(=O)Nc2nc(C)c(C)s2)[C@H]2CCN3C2)ccn1 [Example 481],A (A (EC1.5<1 μM))
10,Cc1cc(-c2ccc3c(n2)N(C(=O)Nc2cnn(C)c2)[C@H]2CCN3C2)ccn1 [Example 482],B (B (EC1.5 1-25 μM))
11,Cc1cc(-c2ccc3c(n2)N(C(=O)Nc2ccc4nn(C)cc4c2)[C@H]2CCN3C2)ccn1 [Example 483],A (A (EC1.5<1 μM))
12,Cc1nn(C)c(C)c1-c1ccc2c(n1)N(C(=O)Nc1cccnc1)[C@H]1CCN2C1 [Example 486],C (C (EC1.5>25 μM))
13,Cc1nn(C)cc1-c1ccc2c(n1)N(C(=O)Nc1cccnc1)[C@H]1CCN2C1 [Example 488],B (B (EC1.5 1-25 μM))
14,Cc1[nH]ncc1-c1ccc2c(n1)N(C(=O)Nc1cccnc1)[C@H]1CCN2C1 [Example 490],B (B (EC1.5 1-25 μM))
15,O=C(Nc1cccnc1)N1c2nc(-c3cc[nH]n3)ccc2N2CC[C@H]1C2 [Example 493],B (B (EC1.5 1-25 μM))
16,Cc1nc(C)c(-c2ccc3c(n2)N(C(=O)Nc2cccnc2)[C@H]2CCN3C2)s1 [Example 495],B (B (EC1.5 1-25 μM))

row,Structure (SMILES),Tryp AVG EC1.5 (μM)
1,COc1cnc(NC(=O)N2c3nc(-c4ccnc(C)c4)ccc3N3CC[C@H]2C3)cn1 [Example 500],A (A (EC1.5<1 μM))
2,COc1nccnc1NC(=O)N1c2nc(-c3ccnc(C)c3)ccc2N2CC[C@H]1C2 [Example 501],B (B (EC1.5 1-25 μM))
3,Cc1cc(-c2ccc3c(n2)N(C(=O)Nc2ccc4c(cnn4C)c2)[C@H]2CCN3C2)ccn1 [Example 502],A (A (EC1.5<1 μM))
4,Cc1cncc(-c2ccc3c(n2)N(C(=O)Nc2ccccn2)[C@H]2CCCN3C2)c1 [Example 504],A (A (EC1.5<1 μM))
5,Cc1ccc(-c2ccc3c(n2)N(C(=O)Nc2nc(C)c(C)s2)[C@H]2CCCN3C2)cn1 [Example 506],A (A (EC1.5<1 μM))
6,Cc1cncc(-c2ccc3c(n2)N(C(=O)Nc2cncc(F)c2)[C@H]2CCCN3C2)c1 [Example 509],A (A (EC1.5<1 μM))
7,COc1cc(NC(=O)N2c3nc(-c4cnccc4C)ccc3N3CCC[C@H]2C3)ncn1 [Example 511],C (C (EC1.5>25 μM))
8,Cc1cncc(-c2ccc3c(n2)N(C(=O)Nc2cnccn2)[C@H]2CCCN3C2)c1 [Example 512],B (B (EC1.5 1-25 μM))
9,Cc1ccncc1-c1ccc2c(n1)N(C(=O)Nc1cnccn1)[C@H]1CCCN2C1 [Example 513],C (C (EC1.5>25 μM))
10,Cc1ccc(-c2ccc3c(n2)N(C(=O)Nc2cccnc2)[C@H]2CCCN3C2)cn1 [Example 514],B (B (EC1.5 1-25 μM))
11,Cc1ccncc1-c1ccc2c(n1)N(C(=O)Nc1cccnc1)[C@H]1CCCN2C1 [Example 516],B (B (EC1.5 1-25 μM))
12,Cc1cncc(-c2ccc3c(n2)N(C(=O)Nc2ccncn2)[C@H]2CCCN3C2)c1 [Example 517],A (A (EC1.5<1 μM))
13,Cc1cncc(-c2ccc3c(n2)N(C(=O)Nc2cccnn2)[C@H]2CCCN3C2)c1 [Example 519],A (A (EC1.5<1 μM))
14,Cc1ccncc1-c1ccc2c(n1)N(C(=O)Nc1cccnn1)[C@H]1CCCN2C1 [Example 520],C (C (EC1.5>25 μM))
15,COc1cc(NC(=O)N2c3nc(-c4cccc(Cl)c4)ccc3N3CCC2CC3)ncn1 [Example 522],B (B (EC1.5 1-25 μM))
16,Cc1n[nH]c(C)c1-c1ccc2c(n1)N(C(=O)Nc1cccnc1)[C@H]1CCN2C1 [Example 525],B (B (EC1.5 1-25 μM))

# Results, then the molecule that gave them:
row,Tryp AVG EC1.5 (μM),Structure (SMILES)
1,A (A (EC1.5<1 μM)),O=C(Nc1ccccn1)N1c2nc(-c3cncc(F)c3)ccc2N2CCC[C@H]1C2 [Example 470]
2,B (B (EC1.5 1-25 μM)),Cc1nc(NC(=O)N2c3nc(-c4cncc(F)c4)ccc3N3CCC[C@H]2C3)sc1C [Example 471]
3,A (A (EC1.5<1 μM)),O=C(Nc1cccc(-c2cnco2)c1)N1c2nc(-c3cccc(C(F)(F)F)c3)ccc2N2CCC1CC2 [Example 473]
4,B (B (EC1.5 1-25 μM)),COc1cc(NC(=O)N2c3nc(-c4ccc(C)nc4)ccc3N3CCC[C@H]2C3)ncn1 [Example 478]
5,A (A (EC1.5<1 μM)),Cc1cc(-c2ccc3c(n2)N(C(=O)Nc2cccc(-c4cnco4)c2)[C@H]2CCN3C2)ccn1 [Example 480]
6,C (C (EC1.5>25 μM)),CN1CCCN(c2ccc3c(n2)N(C(=O)Nc2ccncn2)[C@H]2CCCN3C2)CC1 [Example 484]
7,A (A (EC1.5<1 μM)),O=C(Nc1cccnc1)N1c2nc(-c3cccc(C(F)(F)F)c3)ccc2N2CCC1CC2 [Example 485]
8,B (B (EC1.5 1-25 μM)),CCCn1cc(-c2ccc3c(n2)N(C(=O)Nc2cccnc2)[C@H]2CCN3C2)cn1 [Example 487]
9,B (B (EC1.5 1-25 μM)),Cc1c(-c2ccc3c(n2)N(C(=O)Nc2cccnc2)[C@H]2CCN3C2)cnn1C [Example 489]
10,A (A (EC1.5<1 μM)),O=C(Nc1ccncn1)N1c2nc(N3CCCN(CC(F)(F)F)CC3)ccc2N2CCC[C@H]1C2 [Example 491]
11,A (A (EC1.5<1 μM)),O=C(Nc1cc(F)ccn1)N1c2nc(-c3cccc(C(F)(F)F)c3)ccc2N2CCC1CC2 [Example 492]
12,B (B (EC1.5 1-25 μM)),CC(C)n1cc(-c2ccc3c(n2)N(C(=O)Nc2cccnc2)[C@H]2CCN3C2)cn1 [Example 494]
13,A (A (EC1.5<1 μM)),O=C(Nc1cccnc1)N1c2nc(-c3cccc(Cl)c3)ccc2N2CCC1CC2 [Example 496]
14,A (A (EC1.5<1 μM)),O=C(Nc1cccc(-c2cnco2)c1)N1c2nc(-c3cccc(Cl)c3)ccc2N2CCC1CC2 [Example 497]
15,A (A (EC1.5<1 μM)),Cc1cc(-c2ccc3c(n2)N(C(=O)Nc2cccnc2)[C@H]2CCN3C2)ccn1 [Example 498]
16,A (A (EC1.5<1 μM)),COc1cncc(NC(=O)N2c3nc(-c4ccnc(C)c4)ccc3N3CC[C@H]2C3)n1 [Example 499]
17,A (A (EC1.5<1 μM)),Cc1cc(-c2ccc3c(n2)N(C(=O)Nc2cncc(C)n2)[C@H]2CCN3C2)ccn1 [Example 503]
18,C (C (EC1.5>25 μM)),Cc1ccncc1-c1ccc2c(n1)N(C(=O)Nc1ccccn1)[C@H]1CCCN2C1 [Example 505]
19,A (A (EC1.5<1 μM)),Cc1cncc(-c2ccc3c(n2)N(C(=O)Nc2nc(C)c(C)s2)[C@H]2CCCN3C2)c1 [Example 507]
20,C (C (EC1.5>25 μM)),Cc1ccncc1-c1ccc2c(n1)N(C(=O)Nc1nc(C)c(C)s1)[C@H]1CCCN2C1 [Example 508]
21,B (B (EC1.5 1-25 μM)),Cc1ccncc1-c1ccc2c(n1)N(C(=O)Nc1cncc(F)c1)[C@H]1CCCN2C1 [Example 510]
22,A (A (EC1.5<1 μM)),Cc1cncc(-c2ccc3c(n2)N(C(=O)Nc2cccnc2)[C@H]2CCCN3C2)c1 [Example 515]
23,C (C (EC1.5>25 μM)),Cc1ccncc1-c1ccc2c(n1)N(C(=O)Nc1ccncn1)[C@H]1CCCN2C1 [Example 518]
24,B (B (EC1.5 1-25 μM)),O=C(Nc1cncc(F)c1)N1c2nc(-c3cccc(Cl)c3)ccc2N2CCC1CC2 [Example 521]
25,A (A (EC1.5<1 μM)),COc1cc(NC(=O)N2c3nc(-c4cccc(Cl)c4)ccc3N3CCC2CC3)nc(OC)n1 [Example 523]
26,B (B (EC1.5 1-25 μM)),Cn1nccc1-c1ccc2c(n1)N(C(=O)Nc1cccnc1)[C@H]1CCN2C1 [Example 524]

# Same assay, conditions: Trp mass spectrometry assay; percent maximum fold activation of SIRT1; read-out: Tryp % Fold Act
row,Structure (SMILES),Emax
1,Cc1cc(-c2ccc3c(n2)N(C(=O)Nc2ccc4nn(C)cc4c2)[C@H]2CCN3C2)ccn1 [Example 483],> 150%
2,O=C(Nc1cc(F)ccn1)N1c2nc(-c3cccc(C(F)(F)F)c3)ccc2N2CCC1CC2 [Example 492],> 150%
